For one molecule, remaining binding results are on record in publication PMC6576746, “Rational discovery of dual-indication multi-target PDE/Kinase inhibitor for precision anti-cancer therapy using structural systems pharmacology” (PLoS Computational Biology, 2019).

Common to all, as to test: biochemical
Holding throughout (set-up): DiscoverX KinomeScan competition binding assay across human kinases; per cent of control at 10 and 100 uM

One test deals with T1, AMPK-alpha1 (Homo sapiens, UniProt Q13131).
T1 construct: gene PRKAA1
To be noted: competition binding, % of control; read-out: Percent Control (100 uM Levosimendan). In a few lines: (§1)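 Binding is expressed as %control, normalised between positive and negative control signals. The compound (levosimendan) was tested at 10 μM and 100 μM in the DiscoverX KinomeScan competition binding format against human kinases.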

The target in the next test is DYRK1B (Homo sapiens, UniProt Q9Y463). The following applies: competition binding, % of control; read-out: Percent Control (100 uM Levosimendan). In a few lines:
as §1

Another test deals with EGFR(E746-A750del) (Homo sapiens, UniProt P00533, DEL746-750). To be noted: competition binding, % of control; read-out: Percent Control (100 uM Levosimendan). In a few lines:
as §1

The target in the next test is FYN (Homo sapiens, UniProt P06241). The following applies: competition binding, % of control. In a few lines: as §1
Sequence of FYN (P06241 whole entry): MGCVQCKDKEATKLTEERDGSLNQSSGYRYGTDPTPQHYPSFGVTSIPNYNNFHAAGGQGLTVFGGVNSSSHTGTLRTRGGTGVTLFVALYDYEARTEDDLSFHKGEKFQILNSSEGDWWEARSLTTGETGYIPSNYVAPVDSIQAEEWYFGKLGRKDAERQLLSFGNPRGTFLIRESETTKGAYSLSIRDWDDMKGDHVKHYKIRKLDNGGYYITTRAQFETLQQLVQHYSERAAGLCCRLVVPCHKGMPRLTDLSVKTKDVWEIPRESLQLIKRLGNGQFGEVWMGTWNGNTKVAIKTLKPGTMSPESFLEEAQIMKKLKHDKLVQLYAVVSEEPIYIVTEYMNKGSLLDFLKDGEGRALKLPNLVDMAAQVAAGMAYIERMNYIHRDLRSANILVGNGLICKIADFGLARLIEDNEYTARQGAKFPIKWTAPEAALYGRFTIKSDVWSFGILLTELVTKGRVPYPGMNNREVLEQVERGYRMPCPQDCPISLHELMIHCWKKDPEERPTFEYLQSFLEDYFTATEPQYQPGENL
Another test addresses HCK (Homo sapiens, UniProt P08631). To be noted: competition binding, % of control. In a few lines: as §1
For a further test, the target named is T2, IKK-beta (Homo sapiens, UniProt O14920).
T2 construct: gene IKBKB
The following applies: competition binding, % of control; read-out: Percent Control (100 uM Levosimendan). Summed up: as §1

A further test has as its target IRAK3 (Homo sapiens, UniProt Q9Y616). The following applies: competition binding, % of control; read-out: Percent Control (100 uM Levosimendan). In a few lines: as §1
A further test has as its target MAP3K1 (Homo sapiens, UniProt Q13233). To be noted: competition binding, % of control; read-out: Percent Control (100 uM Levosimendan). Summed up:
as §1

Another test has as its target MARK1 (Homo sapiens, UniProt Q9P0L2). The following applies: competition binding, % of control; read-out: Percent Control (100 uM Levosimendan). In a few lines: as §1
Another test addresses T3, MINK (Homo sapiens, UniProt Q8N4C8).
T3 construct: gene MINK1
To be noted: competition binding, % of control. Summed up: as §1

The next test deals with NEK4 (Homo sapiens, UniProt P51957). The following applies: competition binding, % of control; read-out: Percent Control (100 uM Levosimendan). In a few lines: as §1
Another test deals with PRKCQ (Homo sapiens, UniProt Q04759). The following applies: competition binding, % of control. In a few lines: as §1
Sequence of PRKCQ (Q04759 whole entry): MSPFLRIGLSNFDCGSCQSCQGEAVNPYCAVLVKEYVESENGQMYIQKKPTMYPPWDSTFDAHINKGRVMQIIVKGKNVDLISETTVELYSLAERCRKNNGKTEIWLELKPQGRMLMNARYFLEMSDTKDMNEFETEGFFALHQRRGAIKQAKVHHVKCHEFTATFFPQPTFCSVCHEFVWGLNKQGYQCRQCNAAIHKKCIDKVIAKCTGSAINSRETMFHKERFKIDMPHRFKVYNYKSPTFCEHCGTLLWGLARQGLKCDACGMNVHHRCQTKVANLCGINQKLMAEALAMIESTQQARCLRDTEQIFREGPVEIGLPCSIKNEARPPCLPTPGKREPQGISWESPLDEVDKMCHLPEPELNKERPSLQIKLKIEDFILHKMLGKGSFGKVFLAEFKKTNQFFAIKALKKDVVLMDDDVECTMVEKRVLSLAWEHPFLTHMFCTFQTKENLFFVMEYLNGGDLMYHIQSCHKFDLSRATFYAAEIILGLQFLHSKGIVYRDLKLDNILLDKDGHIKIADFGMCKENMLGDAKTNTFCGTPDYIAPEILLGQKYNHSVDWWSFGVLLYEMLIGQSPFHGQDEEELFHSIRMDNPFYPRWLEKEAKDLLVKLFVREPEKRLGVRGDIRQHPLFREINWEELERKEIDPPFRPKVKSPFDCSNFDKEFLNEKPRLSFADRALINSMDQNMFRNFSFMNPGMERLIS
The next test deals with T4, PRKR (Homo sapiens, UniProt P19525).
T4 construct: gene EIF2AK2
The following applies: competition binding, % of control; read-out: Percent Control (100 uM Levosimendan). Summed up:
as §1

The next test concerns the target T5, PRP4 (Homo sapiens, UniProt Q13523).
T5 construct: gene PRPF4B
The following applies: competition binding, % of control; read-out: Percent Control (100 uM Levosimendan). In a few lines:
as §1

The target of test [1] is T6, RSK2(Kin.Dom.2-C-terminal) (Homo sapiens, UniProt P51812).
T6 construct: gene RPS6KA3; Kin.Dom.2-C-terminal
The following applies: competition binding, % of control; read-out: Percent Control (100 uM Levosimendan). Summed up:
as §1

Another test concerns the target TNK2 (Homo sapiens, UniProt Q07912). The following applies: competition binding, % of control; read-out: Percent Control (100 uM Levosimendan). Summed up: as §1
Test [2] concerns the target T7, TYK2(JH1domain-catalytic) (Homo sapiens, UniProt P29597).
T7 construct: JH1domain-catalytic
The following applies: competition binding, % of control. In a few lines: as §1

For a further test, the target named is ULK3 (Homo sapiens, UniProt Q6PHR2). The following applies: competition binding, % of control; read-out: Percent Control (100 uM Levosimendan). Summed up: as §1
Where [3] appears, read: read-out: Percent Control (10 uM Levosimendan).
Setting [4] is: read-out: Percent Control (100 uM Levosimendan).

T3 sequence (Q8N4C8 whole entry): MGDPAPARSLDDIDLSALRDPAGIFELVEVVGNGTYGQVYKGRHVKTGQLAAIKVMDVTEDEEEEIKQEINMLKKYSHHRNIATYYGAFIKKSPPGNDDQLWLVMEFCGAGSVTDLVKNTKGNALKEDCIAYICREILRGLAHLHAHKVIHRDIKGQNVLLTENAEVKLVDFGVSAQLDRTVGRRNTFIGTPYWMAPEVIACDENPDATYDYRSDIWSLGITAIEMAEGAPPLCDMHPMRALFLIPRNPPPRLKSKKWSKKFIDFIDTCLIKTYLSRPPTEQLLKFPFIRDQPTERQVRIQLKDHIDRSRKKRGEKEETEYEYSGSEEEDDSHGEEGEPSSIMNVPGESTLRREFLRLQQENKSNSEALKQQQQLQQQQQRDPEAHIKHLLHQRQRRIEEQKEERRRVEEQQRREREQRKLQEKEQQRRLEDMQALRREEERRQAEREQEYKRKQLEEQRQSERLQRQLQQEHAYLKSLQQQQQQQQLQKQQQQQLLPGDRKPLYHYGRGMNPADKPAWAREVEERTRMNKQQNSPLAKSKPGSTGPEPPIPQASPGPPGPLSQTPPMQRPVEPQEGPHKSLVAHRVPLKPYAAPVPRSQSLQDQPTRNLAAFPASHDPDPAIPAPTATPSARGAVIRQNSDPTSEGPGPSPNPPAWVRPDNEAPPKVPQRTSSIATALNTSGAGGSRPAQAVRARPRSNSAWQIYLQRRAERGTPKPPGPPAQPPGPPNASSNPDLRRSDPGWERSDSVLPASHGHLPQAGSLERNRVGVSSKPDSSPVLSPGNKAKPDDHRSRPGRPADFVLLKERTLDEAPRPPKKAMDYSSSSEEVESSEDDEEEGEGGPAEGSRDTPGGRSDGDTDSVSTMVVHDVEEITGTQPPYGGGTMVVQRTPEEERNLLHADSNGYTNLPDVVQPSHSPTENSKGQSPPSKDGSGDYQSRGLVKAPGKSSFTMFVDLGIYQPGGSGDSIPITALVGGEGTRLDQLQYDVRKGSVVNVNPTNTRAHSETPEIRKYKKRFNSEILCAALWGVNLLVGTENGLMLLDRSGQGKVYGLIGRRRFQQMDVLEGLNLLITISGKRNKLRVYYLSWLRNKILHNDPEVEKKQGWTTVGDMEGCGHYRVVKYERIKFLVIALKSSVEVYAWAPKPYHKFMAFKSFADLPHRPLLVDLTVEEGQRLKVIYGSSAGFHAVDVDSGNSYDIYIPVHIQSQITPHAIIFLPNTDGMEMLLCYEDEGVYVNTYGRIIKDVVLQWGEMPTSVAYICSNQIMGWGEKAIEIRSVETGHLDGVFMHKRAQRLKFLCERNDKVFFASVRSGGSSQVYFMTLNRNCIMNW
Sequence of HCK (P08631 whole entry): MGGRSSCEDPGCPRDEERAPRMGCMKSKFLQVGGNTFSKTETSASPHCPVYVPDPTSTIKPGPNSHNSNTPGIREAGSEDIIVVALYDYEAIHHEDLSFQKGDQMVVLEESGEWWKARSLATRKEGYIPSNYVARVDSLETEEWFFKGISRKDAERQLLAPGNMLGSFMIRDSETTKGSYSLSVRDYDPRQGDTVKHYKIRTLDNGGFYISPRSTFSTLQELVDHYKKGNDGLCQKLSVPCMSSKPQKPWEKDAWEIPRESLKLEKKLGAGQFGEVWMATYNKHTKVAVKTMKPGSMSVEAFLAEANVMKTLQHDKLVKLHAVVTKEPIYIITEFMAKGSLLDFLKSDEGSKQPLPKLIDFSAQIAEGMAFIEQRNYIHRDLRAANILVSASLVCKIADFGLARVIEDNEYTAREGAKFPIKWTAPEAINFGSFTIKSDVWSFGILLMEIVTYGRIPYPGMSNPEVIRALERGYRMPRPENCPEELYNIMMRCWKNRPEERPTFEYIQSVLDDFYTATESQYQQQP
T7 sequence (P29597 whole entry): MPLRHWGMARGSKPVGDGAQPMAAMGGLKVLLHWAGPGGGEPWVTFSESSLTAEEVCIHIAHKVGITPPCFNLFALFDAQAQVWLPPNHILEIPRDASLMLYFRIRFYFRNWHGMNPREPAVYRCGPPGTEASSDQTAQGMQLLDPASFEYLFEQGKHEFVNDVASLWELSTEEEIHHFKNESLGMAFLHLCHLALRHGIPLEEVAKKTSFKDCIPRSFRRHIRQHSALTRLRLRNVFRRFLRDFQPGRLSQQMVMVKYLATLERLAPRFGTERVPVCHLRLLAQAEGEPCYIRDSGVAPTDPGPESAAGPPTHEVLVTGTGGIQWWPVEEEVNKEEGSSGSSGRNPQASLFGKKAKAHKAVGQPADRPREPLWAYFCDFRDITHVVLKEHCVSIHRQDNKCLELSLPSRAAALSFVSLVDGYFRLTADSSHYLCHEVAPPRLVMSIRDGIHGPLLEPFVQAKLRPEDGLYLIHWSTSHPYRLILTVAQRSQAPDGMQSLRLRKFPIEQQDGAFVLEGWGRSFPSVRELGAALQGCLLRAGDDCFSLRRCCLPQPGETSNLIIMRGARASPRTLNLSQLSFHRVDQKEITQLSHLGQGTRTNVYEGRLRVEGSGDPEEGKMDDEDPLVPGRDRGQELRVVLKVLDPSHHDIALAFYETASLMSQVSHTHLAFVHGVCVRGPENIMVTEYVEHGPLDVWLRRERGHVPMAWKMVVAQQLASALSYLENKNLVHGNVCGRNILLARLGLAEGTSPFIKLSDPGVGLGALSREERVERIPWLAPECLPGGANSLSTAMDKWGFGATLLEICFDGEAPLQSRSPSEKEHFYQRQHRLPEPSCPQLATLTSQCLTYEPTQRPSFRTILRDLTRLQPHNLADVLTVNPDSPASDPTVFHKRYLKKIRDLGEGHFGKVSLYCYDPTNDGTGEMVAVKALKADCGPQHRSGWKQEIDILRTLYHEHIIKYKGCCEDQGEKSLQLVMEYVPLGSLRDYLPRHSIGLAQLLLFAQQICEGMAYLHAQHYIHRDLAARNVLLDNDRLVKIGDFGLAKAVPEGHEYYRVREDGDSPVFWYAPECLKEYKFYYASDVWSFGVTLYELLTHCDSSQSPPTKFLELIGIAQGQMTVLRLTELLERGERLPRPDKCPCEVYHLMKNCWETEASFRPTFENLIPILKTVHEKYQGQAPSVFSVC
Sequence of MARK1 (Q9P0L2 whole entry): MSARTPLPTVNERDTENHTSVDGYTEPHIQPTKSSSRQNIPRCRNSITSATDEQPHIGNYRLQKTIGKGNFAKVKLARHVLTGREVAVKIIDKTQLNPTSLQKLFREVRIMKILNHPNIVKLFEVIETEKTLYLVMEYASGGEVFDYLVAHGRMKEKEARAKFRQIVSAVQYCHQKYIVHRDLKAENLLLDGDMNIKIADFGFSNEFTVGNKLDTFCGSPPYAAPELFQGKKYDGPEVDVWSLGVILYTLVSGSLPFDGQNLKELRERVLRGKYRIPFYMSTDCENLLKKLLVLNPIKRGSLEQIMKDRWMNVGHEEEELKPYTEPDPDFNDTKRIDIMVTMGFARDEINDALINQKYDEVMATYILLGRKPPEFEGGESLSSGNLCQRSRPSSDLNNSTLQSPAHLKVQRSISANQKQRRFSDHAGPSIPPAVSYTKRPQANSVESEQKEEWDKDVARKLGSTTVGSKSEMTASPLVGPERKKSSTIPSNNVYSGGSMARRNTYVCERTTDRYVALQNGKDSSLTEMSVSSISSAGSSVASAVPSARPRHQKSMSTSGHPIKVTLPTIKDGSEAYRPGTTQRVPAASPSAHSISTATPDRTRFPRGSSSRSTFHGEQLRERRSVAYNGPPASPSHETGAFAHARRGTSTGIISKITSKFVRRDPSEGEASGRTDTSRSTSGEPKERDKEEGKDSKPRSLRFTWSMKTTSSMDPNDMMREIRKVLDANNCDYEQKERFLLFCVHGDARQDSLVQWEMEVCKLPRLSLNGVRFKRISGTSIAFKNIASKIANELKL

As to `C[C@@H]1CC(=O)NN=C1c1ccc(NN=C(C#N)C#N)cc1` [levosimendan], the remaining binding at 100 µM is 83% at AMPK-alpha1; 100% on DYRK1B; 63% at EGFR(E746-A750del); 47% on FYN (setting [4]); 24% at HCK (setting [4]); 74% on IKK-beta. The remaining binding at 100 µM on IRAK3 was determined as 100%; at MAP3K1, 100%; on MARK1, 85%; at MINK (setting [4]), 26%; on NEK4 it was 100%; on PRKCQ (setting [4]), 36%. Also, the remaining binding at 100 µM at PRKR amounted to 96%; at PRP4 it was 100%; in [1], 66%; at TNK2 it was 86%; in [2] (setting [4]) it was 27%; on ULK3, 77%. For the same molecule, the remaining binding at 10 µM on FYN (setting [3]) was determined as 96%; at HCK (setting [3]) it was 98%; on MINK (setting [3]), 77%; at PRKCQ (setting [3]), 5.2%; in [2] (setting [3]) it was 85%.
